For 67 compounds, minimal effective dose results are on record in patent US4153709A, “N-Heterocyclic ureas as immune regulants” (Eli Lilly and Company, priority 1977, dated 1979).

The test concerns antibody response to sheep blood cells (hemaglutination titer). In words: Immune regulating test: suppression of hemaglutination titer by 4-fold factor in mice (i.p. drug, i.p. sheep blood cells), Tables 1-15. The test is classed as in vivo, Swiss mice. To be noted: Mus musculus, ip, 192 h, × 3, intraperitoneal, minimum dose to suppress the hemaglutination titer by a 4-fold factor, 8 days after antigen, read-out: Immuno-Suppressant ED4-Fold. On the procedure:
The ability of compounds according to the above formulas to alter immune mechanisms in a host animal was measured by their activity according to the following test. Groups of five 20-gram Swiss mice were injected intraperitoneally with standardized suspensions of an antigen--in this instance sheep blook cells. […] Eight days after injection of the antigen, the mice were bled and the sera from each group pooled. Antibody determinations were made on the serum pools by a hemaglutination pattern procedure and comparisons made between treated and control animals. In Tables 1-18 which follow, the activity of the compounds listed therein is given in terms of the minimum dose of drug necessary to suppress the hemaglutination titer by a 4-fold factor in the treated mice as compared with control titers.
For `O=C(Nc1ccccc1)Nc1nc2ccccc2n1-c1ccccc1` [Table 8: phenyl, phenyl], the minimal effective dose was found to be 50 mg/kg. Regarding `Cn1c(NC(=O)Nc2cccc3ccccc23)nc2ccccc21` [Table 8: α-naphthyl, methyl], the minimal effective dose is above 50 mg/kg. On to `O=C(Nc1cccc2ccccc12)Nc1nc2ccccc2n1-c1ccccc1` [Table 8: α-naphthyl, phenyl], for which the minimal effective dose turned out to be 100 mg/kg. The same measure for `O=C(Nc1ccc(F)cc1)Nc1nc2cc3ccccc3cc2[nH]1` [Table 9: p-fluorophenyl]: above 25 mg/kg; for `O=C(Nc1ccccc1)Nc1nc2cc3ccccc3cc2[nH]1` [Table 9: phenyl]: 25 mg/kg; for `O=C(Nc1nc2cc3ccccc3cc2[nH]1)Nc1cccc2ccccc12` [Table 9: α-naphthyl]: 50 mg/kg. For the compound `O=C(Nc1cccc(Cl)c1)Nc1nc2c(ccc3ccccc32)[nH]1` [Table 10: m-chlorophenyl], the minimal effective dose was 0.05 mg/kg. As to `O=C(Nc1ccc(F)cc1)Nc1nc2c(ccc3ccccc32)[nH]1` [Table 10: p-fluorophenyl], the minimal effective dose was 25 mg/kg.

For the compound `O=C(Nc1ccccc1)Nc1nc2c(ccc3ccccc32)[nH]1` [Table 10: phenyl], the minimal effective dose turned out to be 50 mg/kg.

With `O=C(Nc1nc2c(ccc3ccccc32)[nH]1)Nc1cccc2ccccc12` [Table 10: α-naphthyl], the minimal effective dose was above 6.2 mg/kg. Consider `O=C(Nc1nc2ccccc2s1)Nc1cc(Cl)ccc1Cl` [Table 11: 2,5-dichlorophenyl, H, S], for which the minimal effective dose amounted to 12.5 mg/kg. `O=C(Nc1ccc(Cl)c(Cl)c1)Nc1nc2ccccc2s1` [Table 11: 3,4-dichlorophenyl, H, S]: the minimal effective dose came to 12.5 mg/kg.

Consider `O=C(Nc1cccc(Cl)c1)Nc1nc2c(Cl)cccc2s1` [Table 11: m-chlorophenyl, 4-Cl, S], for which the minimal effective dose is below 50 mg/kg.

With `O=C(Nc1cccc(Cl)c1)Nc1nc2cc(Cl)ccc2o1` [Table 11: m-chlorophenyl, 5-Cl, O], the minimal effective dose was 400 mg/kg. As to `COc1ccc2nc(NC(=O)Nc3cccc(Cl)c3)sc2c1` [Table 11: m-chlorophenyl, 6-CH3 O, S], the minimal effective dose was determined as 12.5 mg/kg. Take `O=C(Nc1cccc(Cl)c1)Nc1nc2ccccc2s1` [Table 11: m-chlorophenyl, H, S]: the minimal effective dose worked out at 1.6 mg/kg. As for `Cc1cccc(NC(=O)Nc2nc3cc(C)c(C)cc3s2)c1` [Table 11: m-tolyl, 5,6-dimethyl, S], the minimal effective dose is 25 mg/kg. `COc1ccc2nc(NC(=O)Nc3cccc(C)c3)sc2c1` [Table 11: m-tolyl, 6-CH3 O, S]: the minimal effective dose was below 25 mg/kg. The same measure for `O=C(Nc1cccc(C(F)(F)F)c1)Nc1nc2ccccc2s1` [Table 11: m-trifluoromethylphenyl, H, S]: below 50 mg/kg; for `COc1ccccc1NC(=O)Nc1nc2ccccc2s1` [Table 11: o-anisyl, H, S]: 50 mg/kg; for `COc1ccc2nc(NC(=O)Nc3ccccc3Cl)sc2c1` [Table 11: o-chlorophenyl, 6-CH3 O, S]: below 50 mg/kg. For `O=C(Nc1nc2ccccc2s1)Nc1ccccc1Cl` [Table 11: o-chlorophenyl, H, S], the minimal effective dose is below 50 mg/kg. Take `CCOc1ccccc1NC(=O)Nc1nc2ccccc2s1` [Table 11: o-ethoxyphenyl, H, S]: the minimal effective dose was below 50 mg/kg.

Consider `O=C(Nc1nc2ccccc2s1)Nc1ccccc1F` [Table 11: o-fluorophenyl, H, S], for which the minimal effective dose was below 6.2 mg/kg. Turning to `Cc1cc2nc(NC(=O)Nc3ccccc3C)sc2cc1C` [Table 11: o-tolyl, 5,6-dimethyl, S], the minimal effective dose was below 25 mg/kg.

As to `COc1ccc2nc(NC(=O)Nc3ccccc3C)sc2c1` [Table 11: o-tolyl, 6-CH3 O, S], the minimal effective dose is below 50 mg/kg. The same measure for `Cc1ccccc1NC(=O)Nc1nc2ccccc2s1` [Table 11: o-tolyl, H, S]: below 50 mg/kg; for `COc1ccc(NC(=O)Nc2nc3ccccc3s2)cc1` [Table 11: p-anisyl, H, S]: 50 mg/kg. The same measure for `Cc1cc2nc(NC(=O)Nc3ccc(Br)cc3)sc2cc1C` [Table 11: p-bromophenyl, 5,6-dimethyl, S]: 100 mg/kg. As for `COc1ccc2nc(NC(=O)Nc3ccc(Br)cc3)sc2c1` [Table 11: p-bromophenyl, 6-CH3 O, S], the minimal effective dose was determined as 100 mg/kg. As for `O=C(Nc1ccc(Br)cc1)Nc1nc2ccccc2s1` [Table 11: p-bromophenyl, H, S], the minimal effective dose worked out at 100 mg/kg. Turning to `COc1ccc2nc(NC(=O)Nc3ccc(Cl)cc3)sc2c1` [Table 11: p-chlorophenyl, 6-CH3 O, S], the minimal effective dose was below 50 mg/kg.

`O=C(Nc1ccc(Cl)cc1)Nc1nc2ccccc2s1` [Table 11: p-chlorophenyl, H, S]: the minimal effective dose is below 6.2 mg/kg. With `O=C(Nc1ccc(F)cc1)Nc1nc2ccccc2s1` [Table 11: p-fluorophenyl, H, S], the minimal effective dose was below 25 mg/kg. For `Cc1ccc(NC(=O)Nc2nc3cc(C)c(C)cc3s2)cc1` [Table 11: p-tolyl, 5,6-dimethyl, S], the minimal effective dose is 100 mg/kg. Regarding `COc1ccc2nc(NC(=O)Nc3ccc(C)cc3)sc2c1` [Table 11: p-tolyl, 6-CH3 O, S], the minimal effective dose was below 100 mg/kg. Turning to `Cc1ccc(NC(=O)Nc2nc3ccccc3s2)cc1` [Table 11: p-tolyl, H, S], the minimal effective dose amounted to 100 mg/kg.

For the compound `O=C(Nc1ccccc1)Nc1nc2c(Cl)cccc2s1` [Table 11: phenyl, 4-Cl, S], the minimal effective dose is below 12.5 mg/kg. Take `Cc1cc2nc(NC(=O)Nc3ccccc3)sc2cc1C` [Table 11: phenyl, 5,6-dimethyl, S]: the minimal effective dose is 100 mg/kg. The same measure for `O=C(Nc1ccccc1)Nc1nc2cc(Cl)ccc2o1` [Table 11: phenyl, 5-Cl, O]: 200 mg/kg. Regarding `O=C(Nc1ccccc1)Nc1nc2ccccc2o1` [Table 11: phenyl, H, O], the minimal effective dose came to 50 mg/kg. On to `Cc1cc2nc(NC(=O)Nc3cccc4ccccc34)sc2cc1C` [Table 11: α-naphthyl, 5,6-dimethyl, S], for which the minimal effective dose came out at 50 mg/kg.

As for `O=C(Nc1nc2cc(Cl)ccc2o1)Nc1cccc2ccccc12` [Table 11: α-naphthyl, 5-Cl, O], the minimal effective dose was found to be 200 mg/kg.

For `COc1ccc2nc(NC(=O)Nc3cccc4ccccc34)sc2c1` [Table 11: α-naphthyl, 6-CH3 O, S], the minimal effective dose was below 50 mg/kg.

As to `O=C(Nc1nc2ccccc2o1)Nc1cccc2ccccc12` [Table 11: α-naphthyl, H, O], the minimal effective dose worked out at 50 mg/kg.

`CN(C(=O)Nc1ccc(Cl)cc1)c1nc2ccccc2s1` [Table 12: p-chlorophenyl]: the minimal effective dose is below 50 mg/kg. Consider `CN(C(=O)Nc1ccccc1)c1nc2ccccc2s1` [Table 12: phenyl], for which the minimal effective dose came to 50 mg/kg. On to `CN(C(=O)Nc1cccc2ccccc12)c1nc2ccccc2s1` [Table 12: α-naphthyl], for which the minimal effective dose was 50 mg/kg. As for `O=C(Nc1nc2c(s1)CCCC2)Nc1cccc2ccccc12` [Table 13: α-naphthyl], the minimal effective dose is below 50 mg/kg. Consider `O=C(Nc1nc2c(ccc3ccccc32)s1)Nc1cc(Cl)ccc1Cl` [Table 14: 2,5-dichlorophenyl], for which the minimal effective dose amounted to 100 mg/kg. `O=C(Nc1ccc(Cl)c(Cl)c1)Nc1nc2c(ccc3ccccc32)s1` [Table 14: 3,4-dichlorophenyl]: the minimal effective dose was 3.1 mg/kg. In the case of `O=C(Nc1cccc(Cl)c1)Nc1nc2c(ccc3ccccc32)s1` [Table 14: m-chlorophenyl], the minimal effective dose is below 1.6 mg/kg. For `Cc1cccc(NC(=O)Nc2nc3c(ccc4ccccc43)s2)c1` [Table 14: m-tolyl], the minimal effective dose was 3.1 mg/kg. Turning to `O=C(Nc1cccc(C(F)(F)F)c1)Nc1nc2c(ccc3ccccc32)s1` [Table 14: m-trifluoromethylphenyl], the minimal effective dose was below 6.2 mg/kg. The same measure for `O=C(Nc1nc2c(ccc3ccccc32)s1)Nc1ccccc1Cl` [Table 14: o-chlorophenyl]: 6.2 mg/kg; for `O=C(Nc1nc2c(ccc3ccccc32)s1)Nc1ccccc1F` [Table 14: o-fluorophenyl]: 3.1 mg/kg; for `Cc1ccccc1NC(=O)Nc1nc2c(ccc3ccccc32)s1` [Table 14: o-tolyl]: below 1.6 mg/kg. For `O=C(Nc1ccc(Br)cc1)Nc1nc2c(ccc3ccccc32)s1` [Table 14: p-bromophenyl] the value was below 50 mg/kg. For `O=C(Nc1ccc(Cl)cc1)Nc1nc2c(ccc3ccccc32)s1` [Table 14: p-chlorophenyl], the minimal effective dose was below 100 mg/kg. As for `O=C(Nc1ccc(F)cc1)Nc1nc2c(ccc3ccccc32)s1` [Table 14: p-fluorophenyl], the minimal effective dose stood at 12.5 mg/kg. On to `Cc1ccc(NC(=O)Nc2nc3c(ccc4ccccc43)s2)cc1` [Table 14: p-tolyl], for which the minimal effective dose came to 6.2 mg/kg. For the compound `O=C(Nc1ccccc1)Nc1nc2c(ccc3ccccc32)s1` [Table 14: phenyl], the minimal effective dose was below 12.5 mg/kg.

In the case of `O=C(Nc1nc2c(ccc3ccccc32)s1)Nc1cccc2ccccc12` [Table 14: α-naphthyl], the minimal effective dose is 3.1 mg/kg.

Regarding `O=C(Nc1ccc(Br)cc1)Nc1nc2ccc3ccccc3c2s1` [Table 15: p-bromophenyl], the minimal effective dose worked out at 50 mg/kg. Turning to `Cc1ccc(NC(=O)Nc2nc3ccc4ccccc4c3s2)cc1` [Table 15: p-tolyl], the minimal effective dose is above 25 mg/kg.

Consider `O=C(Nc1ccccc1)Nc1nc2ccc3ccccc3c2s1` [Table 15: phenyl], for which the minimal effective dose came out at 0.8 mg/kg.

For the compound `O=C(Nc1nc2ccc3ccccc3c2s1)Nc1cccc2ccccc12` [Table 15: α-naphthyl], the minimal effective dose is 0.4 mg/kg.
